Experimental data: patent US5110816A, “3-[2-(4-arylpiperazin-1-yl)ethoxy]-p-cymene, the method of preparing and composition thereof” (Institut de Recherches Chimiques et Biologiques Appliquees …, priority 1988, dated 1992)
Where a name gives a salt, the structure may show the parent alone.

Key:
[1] = tested on: toxicity of norepinephrine; experiment: Adrenolytic activity in vivo in rats (protection against norepinephrine lethality); conditions: for ED50: Rattus norvegicus, oral 30 minutes before i.v. norepinephrine 0.4 mg.kg^-1, dose protecting 50 percent of animals; for protection against the toxicity of norepinephrine (in words): oral
Procedure: 4. Determination of the Adrenolytic Activity "In Vivo" in Rats
The intravenous injection of norepinephrine (0.4 mg.kg^-1) in wake rats causes the death of 100 percent of the animals. The prior administration of a substance with an alpha-blocking property makes it possible to reduce this toxicity.
The products claimed were administered orally 30 minutes before the intravenous injection of norepinephrine.
These are expressed in the form of the 50% effective dose (ED50), i.e. the dose, in mg.kg^-1, which protects 50 percent of the animals.

[2] = tested on: ureteral pressure; experiment: Norepinephrine-induced ureteral hyperpressure in anesthetized rabbits; type: in vivo; conditions: for ratio of ID50 arterial pressure to ID50 ureteral pressure: I.V.; for ED50: Oryctolagus cuniculus, iv, norepinephrine i.v., 50% inhibition of increase in ureteral pressure, read-out: Ureteral pressure ID50
Source text: (§1) 5. Activity on Ureteral Hyperpressure in Rabbits
(§2) An increase in the arterial pressure and the ureteral pressure is induced in anesthetized rabbits by an intravenous injection of norepinephrine. These hyperpressures can be inhibited by the prior administration of molecules with alpha-blocking potential.

[3] = Acute toxicity in mice, single oral dose; conditions: mouse, in vivo, p.o., 14-day observation
Procedure: The products were administered orally to mice in a single dose. After a 14-day observation period, the mortality was recorded.
The results are expressed in the form of the 50% lethal dose (LD50) in mg.kg^-1.

[4] = tested on: arterial pressure; experiment: Norepinephrine-induced arterial hyperpressure in anesthetized rabbits; type: in vivo; conditions: Oryctolagus cuniculus, iv, norepinephrine i.v., 50% inhibition of increase in arterial pressure, read-out: Arterial pressure ID50
Procedure: as §1, §2
The efficacy is assessed by the 50% inhibitory dose (ID50), i.e. the dose which inhibits the increases in arterial and ureteral pressures by 50 percent.

[5] = biological target: T1, postsynaptic alpha-adrenergic receptors (Rattus norvegicus, UniProt P43140); experiment: Alpha-blocking activity on isolated rat vas deferens; type: cell-based; conditions: norepinephrine contraction, -log of product concentration at which norepinephrine concentration must be doubled, read-out: pA2 (converted)
T1 construct: contraction of the isolated vas deferens; from tissue; host or cells: isolated rat vas deferens
T1 sequence (P43140 1-466): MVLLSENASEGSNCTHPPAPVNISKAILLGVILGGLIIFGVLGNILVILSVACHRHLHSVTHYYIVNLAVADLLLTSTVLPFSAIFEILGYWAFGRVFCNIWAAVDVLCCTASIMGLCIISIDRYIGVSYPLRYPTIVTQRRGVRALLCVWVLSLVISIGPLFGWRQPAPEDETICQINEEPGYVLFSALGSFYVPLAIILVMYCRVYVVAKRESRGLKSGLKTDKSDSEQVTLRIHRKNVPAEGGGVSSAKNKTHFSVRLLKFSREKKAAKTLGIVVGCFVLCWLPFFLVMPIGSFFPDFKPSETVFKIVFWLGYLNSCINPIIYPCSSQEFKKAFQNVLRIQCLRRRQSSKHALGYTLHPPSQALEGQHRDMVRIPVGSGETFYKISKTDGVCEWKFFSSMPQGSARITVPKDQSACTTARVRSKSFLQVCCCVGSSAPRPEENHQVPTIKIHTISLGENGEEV
Source text: 2. Determination of the Alpha-Blocking Activity on Isolated Rat Vas Deferens
Stimulation of the postsynaptic alpha-adrenergic receptors by norepinephrine causes contraction of the isolated vas deferens. The aim is to find the product concentration in whose presence the norepinephrine concentration must be doubled in order to obtain the same effect as in the absence of said product.
The logarithm of this concentration, with its sign changed, represents the pA2 value of the product.

[6] = Solubility remark in the isolated rat vas deferens test (Table II); type: physicochemical; conditions: under pA2 in Table II, value N.D.
[7] = tested on: postsynaptic alpha-adrenergic receptors; experiment: Alpha-blocking activity on isolated rabbit ureter; type: cell-based; conditions: norepinephrine contraction halved, printed in Table II with asterisk
Source text: 3. Determination of the Alpha-Blocking Activity on Isolated Rabbit Ureter
Stimulation of the postsynaptic alpha-adrenergic receptors by norepinephrine causes contraction of the isolated rabbit ureter.
The aim is to find the product concentration in whose presence the contracting effect of a given norepinephrine concentration is halved by comparison with the contraction induced before the addition of said product.
The logarithm of this concentration, with its sign changed, represents the pD'2 value.

Compound | ED50 [1] | protection against the toxicity of norepinephrine (in words) [1] | ratio of ID50 arterial pressure to ID50 ureteral pressure [2] | ED50 [2] | LD50 at 336 h [3] | ED50 [4] | Kb [5] | solubility remark [6] | pD'2 [7]
CCOc1ccccc1N1CCN(CCOc2cc(C)ccc2C(C)C)CC1 [B 1178, 3-[2-(4-o-ethoxyphenylpiperazin-1-yl)ethoxy]-p-cymene dihydrochloride] | 2 mg/kg | excellent protection against the toxicity of norepinephrine | 10.6 | 0.37 mg/kg | > 1000 mg/kg | 3.9 mg/kg | 72.4 nM |  | 
Cc1ccc(C(C)C)c(OCCN2CCN(c3ccccc3Cl)CC2)c1 [B 1299, 3-[2-(4-o-chlorophenylpiperazin-1-yl)ethoxy]-p-cymene hydrochloride] | 10 mg/kg | excellent protection against the toxicity of norepinephrine |  |  | > 1000 mg/kg |  | 347 nM |  | 
COc1ccc(N2CCN(CCOc3cc(C)ccc3C(C)C)CC2)c(OC)c1 [B 1362] | 37.3 mg/kg |  |  |  | 897 mg/kg |  | > 1000 nM |  | 
Cc1ccc(C(C)C)c(OCCN2CCN(c3ccc(F)cc3)CC2)c1 [B.1055, 3-[2-(4-p-fluorophenylpiperazin-1-yl)ethoxy]-p-cymene dihydrochloride] | > 100 mg/kg |  |  |  | > 1000 mg/kg |  | 468 nM |  | 
Cc1ccc(C(C)C)c(OCCN2CCN(c3ccccc3)CC2)c1 [B.1057, 3-[2-(4-phenylpiperazin-1-yl)ethoxy]-p-cymene dihydrochloride] | > 100 mg/kg |  |  |  | > 1000 mg/kg |  | 398 nM |  | 
Cc1ccc(C(C)C)c(OCCN2CCN(c3cccc(C(F)(F)F)c3)CC2)c1 [B.1079, 3-[2-(4-α,α,α-trifluoro-m-tolylpiperazin-1-yl)ethoxy]-p-cymene monohydrochloride] | > 100 mg/kg |  |  |  | > 1000 mg/kg |  | > 1000 nM |  | 
CC(=O)c1ccc(N2CCN(CCOc3cc(C)ccc3C(C)C)CC2)cc1 [B.1105, 3-[2-(4-p-acetylphenylpiperazin-1-yl)ethoxy]-p-cymene hydrochloride] | 200 mg/kg |  |  |  | ~540 mg/kg |  | 537 nM |  | 
COc1ccc(N2CCN(CCOc3cc(C)ccc3C(C)C)CC2)cc1 [B.1115, 3-[2-(4-p-methoxyphenylpiperazin-1-yl)ethoxy]-p-cymene dihydrochloride] | 200 mg/kg |  |  |  | > 1000 mg/kg |  | 288 nM |  | 
Cc1ccc(C(C)C)c(OCCN2CCN(c3ccc(Cl)cc3C)CC2)c1 [B.1152, 3-[2-4-(4-chloro-2-methyl)phenylpiperazine-1-yl)ethoxy]-p-cymene hydrochloride] | > 100 mg/kg |  |  |  | > 1000 mg/kg |  |  | insoluble | 
COc1ccccc1N1CCN(CCOc2cc(C)ccc2C(C)C)CC1 [B.1168, 3-[2-(4-o-methoxyphenylpiperazin-1-yl)-ethoxy]-p-cymene dihydrochloride] | 3 mg/kg | excellent protection against the toxicity of norepinephrine |  |  | > 1000 mg/kg |  | 195 nM |  | 
Cc1ccc(C(C)C)c(OCCN2CCN(c3ccc(Cl)c(Cl)c3)CC2)c1 [B.1184, 3-[2-4-(3,4-dichloro)phenylpiperazin-1-yl)ethoxy]-p-cymene hydrochloride] | > 100 mg/kg |  |  |  | > 1000 mg/kg |  |  | insoluble | 
Cc1ccc(C(C)C)c(OCCN2CCN(c3ccc(Cl)cc3)CC2)c1 [B.1191, 3-[2-(4-p-chlorophenylpiperazin-1-yl)ethoxy]-p-cymene dihydrochloride] | > 100 mg/kg |  |  |  | > 1000 mg/kg |  | 331 nM |  | 
CCOc1cccc(N2CCN(CCOc3cc(C)ccc3C(C)C)CC2)c1 [B.1204, 3-[2-(4-m-ethoxyphenylpiperazin-1-yl)ethoxy]-p-cymene hydrochlroide] | 56 mg/kg |  |  |  | > 1000 mg/kg |  | 1000 nM |  | 
COc1cccc(N2CCN(CCOc3cc(C)ccc3C(C)C)CC2)c1 [B.1206, 3-[2-(4-m-methoxyphenylpiperazin-1-yl)ethoxy]-p-cymene hydrochloride] | 100 mg/kg |  |  |  | > 1000 mg/kg |  | 170 nM |  | 
Cc1ccc(C(C)C)c(OCCN2CCN(c3ccccc3C)CC2)c1 [B.1213, 3-[2-(4-o-methylphenylpiperazin-1-yl)-ethoxy]-p-cymene hydrochloride] | 15 mg/kg |  |  |  | > 1000 mg/kg |  | 1100 nM |  | 
Cc1ccc(C(C)C)c(OCCN2CCN(c3cc(Cl)ccc3C)CC2)c1 [B.1256] | 121 mg/kg |  |  |  | > 1000 mg/kg |  | > 1000 nM |  | 
Cc1ccc(C(C)C)c(OCCN2CCN(c3ccccc3F)CC2)c1 [B.1261, 3-[2-(4-o-fluorophenylpiperazin-1-yl)ethoxy]-p-cymene hydrochloride] | 20 mg/kg |  |  |  | > 1000 mg/kg |  | 363 nM |  | 
Cc1ccc(C(C)C)c(OCCN2CCN(c3c(C)cccc3Cl)CC2)c1 [B.1326] | > 200 mg/kg |  |  |  | > 1000 mg/kg |  | > 1000 nM |  | 
Cc1ccc(C(C)C)c(OCCN2CCN(c3ccccc3O)CC2)c1 [B.1338] | 6.4 mg/kg |  | 11.8 | 1.6 mg/kg | > 1000 mg/kg | 19 mg/kg | 40.7 nM |  | 
CCCCOc1ccccc1N1CCN(CCOc2cc(C)ccc2C(C)C)CC1 [B.1340] | 11.3 mg/kg |  |  |  | > 1000 mg/kg |  | > 1000 nM |  | 
Cc1ccc(C(C)C)c(OCCN2CCN(c3cccc(O)c3)CC2)c1 [B.1343] | 142 mg/kg |  |  |  | > 1000 mg/kg |  | 832 nM |  | 
Cc1ccc(N2CCN(CCOc3cc(C)ccc3C(C)C)CC2)c(Cl)c1 [B.1353] | 30.9 mg/kg |  |  |  | > 1000 mg/kg |  | > 1000 nM |  | 
CCCCCOc1ccccc1N1CCN(CCOc2cc(C)ccc2C(C)C)CC1 [B.1356] | 31.1 mg/kg |  |  |  | > 1000 mg/kg |  | > 1000 nM |  | 
CCCOc1ccccc1N1CCN(CCOc2cc(C)ccc2C(C)C)CC1 [B.1358] | 2.1 mg/kg | excellent protection against the toxicity of norepinephrine | 4.1 | 1.22 mg/kg | > 1000 mg/kg | 5 mg/kg | > 1000 nM |  | 
COc1ccc(OC)c(N2CCN(CCOc3cc(C)ccc3C(C)C)CC2)c1 [B.1387] | 6.78 mg/kg | excellent protection against the toxicity of norepinephrine |  |  | > 1000 mg/kg |  | 355 nM |  | 
Cc1ccc(C(C)C)c(OCCN2CCN(c3c(C)cccc3C)CC2)c1 [B.1393] | > 200 mg/kg |  |  |  | > 1000 mg/kg |  | > 1000 nM |  | 
Cc1ccc(C(C)C)c(OCCN2CCN(c3ccccc3OC(C)C)CC2)c1 [B.1399] | 0.78 mg/kg | excellent protection against the toxicity of norepinephrine | 9.1 | 0.18 mg/kg | ~500 mg/kg | 1.64 mg/kg |  |  | 6.69
